# Assay results from patent US8580780B2, “6 substituted 2, 3,4,5 tetrahydro-1H-benzo[d]azepines as 5-HT2C receptor agonist” (Eli Lilly and Company, priority 2004, dated 2013).
# Assays:
# [1] = mouse, in vivo; cited from earlier work
# [2] = rat, in vivo; cited from earlier work
# Marble burying assay = assay type: in vivo, male NIH Swiss mice; conditions: mice, 30 min session, with rotorod check
# Description: Marble burying in mice has been used to model anxiety disorders including obsessive-compulsive disorders (OCD) due to ethological study of the behavior (e.g. Gyertyan I. “Analysis of the marble burying response: Marbles serve to measure digging rather than evoke burying”, Behavioural Pharmacology 6: 24-31, (1995)) and due to the pharmacological effects of clinical standards (c.f., Njung'E K. Handley S L. “Evaluation of marble-burying behavior as a model of anxiety”, Pharmacology, Biochemistry & Behavior. 38: 63-67, (1991)); Borsini F., Podhorna J., and Marazziti, D. “Do animal models of anxiety predict anxiolytic effects of antidepressants?”, Psychopharmacology 163: 121-141, (2002)).
# House experimentally-naïve male, NIH Swiss mice (Harlan Sprague-Dawley, Indianapolis, Ind.) weighing between 28-35g in groups of 12 for at least three days prior to testing in a vivarium with 12 h light and dark cycles. Conduct experiments during the light cycle in a dimly lit experimental testing room. Dose mice with vehicle or test compound and, after a specified pretreatment interval (generally 30 min.), place each mouse individually on a rotorod (Ugo Basile 7650) operating at a speed of 6 revolutions/min. and observe for falling. […]
# Clinically effective standard compounds suppress marble burying at doses that are devoid of motor-impairing effects as measured on the rotorod. […]
# Nestlet shredding = assay type: in vivo, male NIH Swiss mice; conditions: mice, 30 min
# Description: Mice naturally will construct nests of material available in their living environment. Since this behavior is obsessive in nature, it has been used to model OCD (Xia Li, Denise Morrow and Jeffrey M. Witkin, “Decreases in nestlet shredding of mice by serotonin uptake inhibitors: comparison with marble burying”, Psychopharmacology, submitted Jul. 14, 2003). House experimentally-naïve male, NIH Swiss mice (Harlan Sprague-Dawley, Indianapolis, Ind.) weighing between 28-35g in groups of 12 for at least three days prior to testing in a vivarium with a 12 h light/dark cycle. Conduct experiments during the light cycle in an experimental room with normal overhead fluorescent lighting. Dose mice with vehicle or test compound and after a specified pretreatment interval (generally 30 min.), place the mice individually in a 17×28×12 cm high plastic tub with about 5 mm sawdust shavings on the floor along with a pre-weighed multi-ply gauze pad (51 mm square). After 30 min., weigh the remainder of the game pad not removed by the mouse. Determine the weight of the gauze used for nestlet construction by subtraction. Compare the results for test compound treated mice to the results for vehicle control treated mice with Dunnett's test.
# Clinically effective OCD treatment standard compounds suppress nestlet shredding at doses that are devoid of motor-impairing effects as measured by the rotorod test. […]
# [3] = Schedule-induced polydipsia; assay type: in vivo, Wistar rats
# Description: Food-deprived rats exposed to intermittent presentations of food will drink amounts of water that are far in excess of their normal daily intake and in excess of their intake when given all of their food at one time (Falk J L. “Production of polydipsia in normal rats by an intermittent food schedule”, Science 133: 195-196, (1961)). This excessive behavior is persistent and has been used to model OCD.
# Maintain Wistar rats on a food restricted diet (to maintain 85% free feeding weight), but with free access to water. Train the rats in a behavioral testing chamber to press a lever to receive a food pellet under a fixed interval schedule, such that the rats are rewarded with a 45 mg food pellet the first time they press a lever after a 120 second interval has elapsed. The fixed interval is then reset to 120 seconds and the process repeated. Thus, during a 90 min. test session, the rats can earn a maximum of 45 pellets. The behavioral chamber is also equipped with a water bottle that is weighed before and after the session to determine the amount of water consumed.
# Administer test compounds on Tuesdays and Fridays. […] Compare the rates of lever pressing and water consumption for each animal's performance during sessions after test compound treatment with that animal's performance during control sessions, expressed as a percent of the control rate. […]
smiles,measurement,setting,value
CNCCC(Oc1ccc(C(F)(F)F)cc1)c1ccccc1 (centres unmarked) [fluoxetine],"marble burying (clinical standards, literature)",[1],decrease burying
same,schedule-induced polydipsia (clinically effective OCD standards),[2],"suppress schedule-induced polydipsia without producing notable changes in motor patterns, food intake, or behavior the following day"
CN(C)CCCN1c2ccccc2Sc2ccc(Cl)cc21 [chlorpromazine],marble burying behavior,Marble burying assay,decrease marble burying only at doses that also disrupt rotorod performance
Clc1ccc2c(c1SCc1ccccn1)CCNCC2.O=C(O)CCC(=O)O,melting point,,159 to 160 °C
C[C@H](N)Cc1ccccc1 [d-amphetamine],nestlet shredding,Nestlet shredding,decreases nestlet shredding only at doses that produce motoric side effects
same,Effect on polydipsia with co-administration of 5-HT2C antagonist,"[3]; rat, in vivo",not prevented by the 5HT2C receptor antagonist
same,schedule-induced polydipsia (excessive drinking),"[3]; rats, 90 min session",decreases excessive drinking only at behaviorally stimulating doses
CN(C)CCCN1c2ccccc2CCc2ccc(Cl)cc21 [chlomipramine],schedule-induced polydipsia (clinically effective OCD standards),[2],"suppress schedule-induced polydipsia without producing notable changes in motor patterns, food intake, or behavior the following day"
